Article PMC7774954, “Interactomic affinity profiling by holdup assay: Acetylation and distal residues impact the PDZome-binding specificity of PTEN phosphatase” (PLoS ONE, 2020)

System: 266 human PDZ domains (PDZome)
Experiment: Holdup assay (chromatographic retention, PDZome-binding profile, BI)
Set-up: key to maximal BI / Max BI / BI: binding intensity: 0.00 = no binding, 1.00 = maximal binding
Protocol: The holdup method is a chromatographic approach in solution developed in our group that allows to measure the binding strength of a peptide, attached to a resin, against a library of domains of a same family. We initially proposed this method to explore the interaction between PBM peptides and the human PDZ domains. Briefly, a soluble cell lysate containing individually overexpressed PDZ domain is incubated until equilibrium with a calibrated amount of streptavidin-resin saturated either with the target biotinylated PBM peptide or with biotin as a reference. The flow-throughs containing the unbound protein fraction are recovered by filtration and loaded on a capillary electrophoresis instrument to quantify the amount of remaining free PDZ. The stronger the steady-state depletion of the PDZ domain in the flow-through as compared to the reference, the stronger the PDZ/PBM binding interaction. The assay is particularly suited to quantitatively evaluate and compare large numbers of interactions. This method delivers, for each PBM/PDZ pair, a "binding intensity" (BI), whose value can in principle range from 0.00 (no binding event detected) to 1.00 (maximal binding event). The approach has been automated and the human PDZ library was recently extended to the complete 266 PDZ domains known in human proteome. […] The high accuracy and efficiency of the holdup assay have been validated previously. Very recently, a manual version of the holdup assay with purified samples and using widespread benchtop equipment has been implemented and has proven to be reliable.
The 266 PDZ domains that constitute the PDZ library (“PDZome V.2”) used in the present work were produced using constructs with optimized boundaries as described previously. All the genes were fused to Maltose-Binding Protein (MBP) or Thioredoxin (THR) tag often used to facilitate the solubilisation of the over-expressed protein, by cloning them into the pETG41A or pETG20A plasmid, respectively. […] The expressed tag-PDZ concentrations were quantified using capillary gel electrophoresis and cell lysates were diluted to reach approximately 5 μM tag-PDZ before freezing in 96-well plates. A detailed protocol of the PDZ library production, expression and benchmarking can be found in [32]. PDZ domains are named according to their originating protein name followed by the PDZ number (e.g. NHERF1-1 as the first PDZ domain of the NHERF1 protein).
The holdup assay was performed on a Tecan freedom Evo200 robot with 384-well plates in singlicate for the three 11-mer PTEN variants and the 13-mer PTEN peptide as described in [31, 32]. Briefly, prior to interaction assay, 2.5 μL of streptavidin resin was saturated in each well with 20 μL of biotinylated PBM peptides (42 μM) and then washed twice with an excess of free biotin, while the reference resin was incubated only with biotin. Right before the holdup experiment, the PDZ library was spiked with an internal standard of lysozyme. Then, the biotin- or PBM-saturated resin was incubated, each in a distinct well of a 384-well plate, with complete cell lysates diluted so that the concentration of the tag-PDZ present in the crude extract is adjusted at 4 μM. After a sufficient time to reach complex equilibrium (15 min.), a fast and mild filtration step is performed and the tag-PDZ concentrations were measured by capillary electrophoresis instrument (LabChip GXII, PerkinElmer, Massachusets, USA). Standard markers were used to convert migration time into molecular weight on the LabChip software and inappropriate molecular weight markers were corrected or excluded.
Holdup data quality check and processing […]

Structure (SMILES): CC[C@H](C)[C@H](NC(=O)[C@H](CCC(N)=O)NC(=O)[C@@H](NC(=O)[C@H](Cc1c[nH]cn1)NC(=O)[C@H](CCC(N)=O)NC(=O)[C@H](CC(=O)O)NC(=O)[C@H](CCC(=O)O)NC(=O)[C@H](CC(=O)O)NC(=O)CCC(=O)NCCCOCCOCCOCCCNC(=O)CCCC[C@@H]1SC[C@@H]2NC(=O)N[C@@H]21)[C@@H](C)O)C(=O)N[C@H](C(=O)N[C@@H](CCCCNC(C)=O)C(=O)N[C@H](C(=O)O)C(C)C)[C@@H](C)O [PTEN_Ac]
- number of additional new PDZ partners not detected for PTEN_11 (BI>0.20, compared with PTEN_11): at least 20
- BI (PDZ domain MPDZ-2): 0.353
- BI (PDZ domain MPDZ-3): 0.002
- BI (PDZ domain MPDZ-4): 0.029
- BI (PDZ domain MPDZ-5): -0.014
- BI (PDZ domain MPDZ-6): -0.058
- BI (PDZ domain MPDZ-7): 0.624
- BI (PDZ domain MPDZ-8): 0.172
- BI (PDZ domain MPDZ-9 (gene NHERF2, 2)): 0.016
- BI (PDZ domain MPDZ-12): 0.019
- BI (PDZ domain MPDZ-13): 0.351
- BI (PDZ domain MPP1-1): -0.054
- BI (PDZ domain MPP3-1): -0.063
- BI (PDZ domain MPP4-1): -0.043
- BI (PDZ domain MPP5-1): -0.048
- BI (PDZ domain MPP6-1): -0.03
- BI (PDZ domain MPP7-1): -0.045
- BI (PDZ domain NHERF1-2): 0.046
- BI (PDZ domain NHERF3-1): 0.45
- BI (PDZ domain NHERF3-2): 0.105
- BI (PDZ domain NHERF3-3): 0.021
- BI (PDZ domain NHERF3-4): -0.017
- BI (PDZ domain NHERF4-1): -0.007
- BI (PDZ domain NHERF4-2): 0.014
- BI (PDZ domain NHERF4-3): -0.031
- BI (PDZ domain NHERF4-4): -0.03
- BI (PDZ domain NOS1-1): 0.106
- BI (PDZ domain PARD3-1, first of two lines so named (r186)): 0.035
- BI (PDZ domain PARD3-1, second of two lines so named (r187)): -0.073
- BI (PDZ domain PARD3-2): 0.074
- BI (PDZ domain PARD3B-1): -0.205
- BI (PDZ domain PARD3B-2): -0.04
- BI (PDZ domain PARD3B-3): -0.007
- BI (PDZ domain PARD6A-1): 0.007
- BI (PDZ domain PARD6G-1): -0.034
- BI (PDZ domain PCLO-1): -0.088
- BI (PDZ domain PDLIM1-1): -0.087
- BI (PDZ domain PDLIM3-1): -0.026
- BI (PDZ domain PDLIM4-1): -0.03
- BI (PDZ domain PDLIM5-1): -0.022
- BI (PDZ domain PDLIM7-1): -0.025
- BI (PDZ domain PDZD2-1): -0.095
- BI (PDZ domain PDZD2-2): 0.195
- BI (PDZ domain PDZD2-3): 0.017
- BI (PDZ domain PDZD2-5): -0.091
- BI (PDZ domain PDZD2-6): -0.026
- BI (PDZ domain PDZD4-1): 0.085
- BI (PDZ domain PDZD7-1): -0.051
- BI (PDZ domain PDZD7-3): 0.901
- BI (PDZ domain PDZD8-1): -0.202
- BI (PDZ domain PDZD9-1): -0.019
- BI (PDZ domain PDZD11-1): -0.017
- BI (PDZ domain PDZRN3-1): -0.019
- BI (PDZ domain PDZRN3-2): 0.016
- BI (PDZ domain PDZRN4-1): -0.064
- BI (PDZ domain PDZRN4-2): 0.099
- BI (PDZ domain PICK1-1): 0.052
- BI (PDZ domain PPP1R9A-1): 0.066
- BI (PDZ domain PPP1R9B-1): -0.044
- BI (PDZ domain PREX1-1): -0.014
- BI (PDZ domain PREX2-2): 0.096
- BI (PDZ domain PRX-1): -0.021
- BI (PDZ domain PSCDBP-1): -0.005
- BI (PDZ domain PSMD9-1): -0.007
- BI (PDZ domain PTPN3-1): 0.05
- BI (PDZ domain PTPN4-1): 0.02
- BI (PDZ domain PTPN13-1): -0.024
- BI (PDZ domain PTPN13-3): -0.028
- BI (PDZ domain PTPN13-5): -0.046
- BI (PDZ domain RADIL-1): 0.522
- BI (PDZ domain RAPGEF2-1): -0.076
- BI (PDZ domain RAPGEF6-1): 0.035
- BI (PDZ domain RGS3-1): -0.001
- BI (PDZ domain RGS12-1): 0.033
- BI (PDZ domain RHPN2-1): -0.044
- BI (PDZ domain RIMS1-1): -0.02
- BI (PDZ domain RIMS2-1): -0.022
- BI (PDZ domain SCRIB-2): 0.163
- BI (PDZ domain SCRIB-4): 0.058
- BI (PDZ domain SDCBP2-2): -0.013
- BI (PDZ domain SDCBP-2): -0.05
- BI (PDZ domain SHANK1-1): 0.152
- BI (PDZ domain SHANK2-1): 0.209
- BI (PDZ domain SHANK3-1): 0.235
- BI (PDZ domain SHROOM2-1): -0.072
- BI (PDZ domain SHROOM3-1): -0.048
- BI (PDZ domain SHROOM4-1): -0.073
- BI (PDZ domain SIPA1L2-1): -0.001
- BI (PDZ domain SIPA1L3-1): -0.046
- BI (PDZ domain SNTA1-1): 0.41
- BI (PDZ domain SNTB1-1): 0.548
- BI (PDZ domain SNTG1-1): 0.345
- BI (PDZ domain SNTG2-1): -0.077
- BI (PDZ domain STXB4-1): -0.072
- BI (PDZ domain SYNJ2BP-1): 0.023
- BI (PDZ domain SYNP2-1): 0.005
- BI (PDZ domain SYNPO2L-1): 0.063
- BI (PDZ domain TIAM1-1): -0.072
- BI (PDZ domain TIAM2-1): -0.008
- BI (PDZ domain TJP1-1): 0.198
- number of PDZ domains identified as potential binders (BI>0.20) (holdup, singlicate, threshold BI>0.20): 43 PDZ domains
- maximal BI (holdup, singlicate, highest BI in the PDZome profile, BI standard error ~0.07): 0.90
- binding of several PDZ domains (in words) (including several ones from MAGI and NHERF): detectably bound
- Max BI (maximum over PDZome): 0.90
- number of partners detected for PTEN_Ac and not for PTEN_KR (over a total of 43): 15
